Data as given in patent publication US20130078287A1 (Horizon Pharma USA, Inc., priority 2010, published 2013).
Marks after values point to notes of the source that are not given here.

What was measured:
[1] = tested on: subjects expected to require daily NSAID therapy; test: Pooled REDUCE-1 and REDUCE-2: UGI ulcers by subgroup; format: in vivo, human; details: for Subjects who developed an upper gastrointestinal ulcer: clinical studies of HZT-501; for Proportion of subjects who developed at least one UGI ulcer: pooled, Week 24 life table
From the text: In addition to examining potential risk factors together in a statistical model, the effect of treatment was examined in the combined studies overall and within various subgroups of interest. These subgroups included age category (<65, […]), prior history of UGI ulcer (yes, no), use of low-dose aspirin (LDA) (yes, no), and gender. […] Treatment was the only factor included in the model.

[2] = tested on: subjects who completed REDUCE-1 or REDUCE-2 without ulcer; details: human, in vivo, 28 weeks
[3] = tested on: subjects who completed REDUCE-1 or REDUCE-2 without ulcer; test: Follow-on safety study (28 weeks) after REDUCE-1 or REDUCE-2: adverse events
[4] = TEAE, follow-on study, Preferred Term
[5] = TEAE, follow-on study, System Organ Class

CC(C)Cc1ccc(C(C)C(=O)O)cc1 (stereo not shown) [Ibuprofen, 2-(p-isobutylphenyl)propionic acid]
Subjects who developed an upper gastrointestinal ulcer ([1]; subjects who used low-dose aspirin): 35%
Subjects who developed an upper gastrointestinal ulcer ([1]; subjects with a prior history of gastrointestinal ulcer): 24%
Proportion of subjects who developed at least one UGI ulcer ([1]; Age <65 years): 26.3%
Proportion of subjects who developed at least one UGI ulcer ([1]; Age ≧65 years): 26.6%
Proportion of subjects who developed at least one UGI ulcer ([1]; Age ≧65 years, listed as ibuprofen): 27%
Proportion of subjects who developed at least one UGI ulcer ([1]; Female): 28.3%
Proportion of subjects who developed at least one UGI ulcer ([1]; Race Other): 13.3%
Viral infection [2]: 2.1 (1) % (n)
AEs Leading to Discontinuation, Incidence (%) ([3]; Follow-on Study): 2.1%
AEs by Relatedness: Possibly Related, Incidence (%) ([3]; Follow-on Study): 8.5%
AEs by Relatedness: Probably Not Related, Incidence (%) ([3]; Follow-on Study): 25.5%
AEs by Severity: Life Threatening, Incidence (%) ([3]; Follow-on Study): 0.0%
AEs by Severity: Mild, Incidence (%) ([3]; Follow-on Study): 10.6%
AEs by Severity: Moderate, Incidence (%) ([3]; Follow-on Study): 19.1%
AEs by Severity: Severe, Incidence (%) ([3]; Follow-on Study): 4.3%
Abdominal Pain Upper, Incidence (%) ([3]; Follow-on Study): 0.0 (0) %
Abdominal Tenderness, Incidence % ([3]; Follow-on Study): 2.1 (0) %
Any GI Event, Incidence (%) ([3]; Follow-on Study): 4.3 (2)* %
Constipation, Incidence (%) ([3]; Follow-on Study): 0.0 (0) %
Deaths, Incidence % ([3]; Follow-on Study): 0.0(0) %
Diarrhea, Incidence (%) ([3]; Follow-on Study): 2.1 (1) %
Dyspepsia, Incidence (%) ([3]; Follow-on Study): 0.0 (0) %
General Disorders/Administrative Site Conditions, Incidence (%) ([3]; Follow-on Study): 4.3(2) %
Hepatobiliary Disorders, Incidence (%) ([3]; Follow-on Study): 2.1(1) %
Hypertension, Incidence (%) ([3]; Follow-on Study): 0.0(0) %
Infections/Infestations, Incidence (%) ([3]; Follow-on Study): 14.9(7) %
Injury, Poisoning, Procedural Complications, Incidence (%) ([3]; Follow-on Study): 4.3(2) %
Metabolism and Nutrition Disorders, Incidence % ([3]; Follow-on Study): 8.5(4)* %
Musculoskeletal/connective Tissue Disorders, Incidence (%) ([3]; Follow-on Study): 2.1(1) %
Nausea, Incidence (%) ([3]; Follow-on Study): 0.0 (0) %
Nervous System Disorders, Incidence (%) ([3]; Follow-on Study): 4.3(2) %
Respiratory, Thoracic and Mediastinal Disorders, Incidence (%) ([3]; Follow-on Study): 2.1(1) %
SAEs leading to discontinuation, Incidence % ([3]; Follow-on Study): 0.0(0) %
Subjects with at least one AE, Incidence (%) ([3]; Follow-on Study): 34.0%
Total SAEs, Incidence % ([3]; Follow-on Study): 4.3(2) %
Withdrawals due to GI, Incidence (%) ([3]; Follow-on Study): 0.0 (0) %
Abdominal discomfort [3, 4]: 2.1 (1) % (n)
Abdominal distension [3, 4]: 0.0 (0) % (n)
Abdominal pain [3, 4]: 2.1 (1) % (n)
Abdominal pain upper [3, 4]: 2.1 (1) % (n)
Abdominal tenderness [3, 4]: 2.1 (1) % (n)
Accidental overdose [3, 4]: 2.1 (1) % (n)
Anaemia [3, 4]: 2.1 (1) % (n)
Animal bite [3, 4]: 0.0 (0) % (n)
Anxiety [3, 4]: 2.1 (1) % (n)
Arthralgia [3, 4]: 4.3 (2) % (n)
Asthma [3, 4]: 0.0 (0) % (n)
Back pain [3, 4]: 0.0 (0) % (n)
Blood creatinine increased [3, 4]: 0.0 (0) % (n)
Blood pressure increased [3, 4]: 0.0 (0) % (n)
Bronchitis [3, 4]: 2.1 (1) % (n)
Bronchitis acute [3, 4]: 2.1 (1) % (n)
Carpal tunnel syndrome [3, 4]: 0.0 (0) % (n)
Cataract [3, 4]: 2.1 (1) % (n)
Cholelithiasis [3, 4]: 2.1 (1) % (n)
Conjunctivitis [3, 4]: 2.1 (1) % (n)
Constipation [3, 4]: 4.3 (2) % (n)
Contusion [3, 4]: 2.1 (1) % (n)
Cough [3, 4]: 0.0 (0) % (n)
Dermatitis [3, 4]: 2.1 (1) % (n)
Dermatitis contact [3, 4]: 2.1 (1) % (n)
Diabetes mellitus [3, 4]: 2.1 (1) % (n)
Diabetes mellitus non-insulin-dependent [3, 4]: 2.1 (1) % (n)
Diarrhoea [3, 4]: 8.5 (4) % (n)
Dizziness [3, 4]: 2.1 (1) % (n)
Dyspepsia [3, 4]: 2.1 (1) % (n)
Ear infection [3, 4]: 2.1 (1) % (n)
Eczema [3, 4]: 2.1 (1) % (n)
Fall [3, 4]: 2.1 (1) % (n)
Flatulence [3, 4]: 2.1 (1) % (n)
Folliculitis [3, 4]: 2.1 (1) % (n)
Foot fracture [3, 4]: 2.1 (1) % (n)
Gait disturbance [3, 4]: 2.1 (1) % (n)
Gastritis [3, 4]: 2.1 (1) % (n)
Gastroenteritis [3, 4]: 0.0 (0) % (n)
Gastroenteritis viral [3, 4]: 4.3 (2) % (n)
Gastrooesophageal reflux disease [3, 4]: 2.1 (1) % (n)
Headache [3, 4]: 0.0 (0) % (n)
Hypercholesterolaemia [3, 4]: 2.1 (1) % (n)
Hyperglycaemia [3, 4]: 2.1 (1) % (n)
Hyperlipidaemia [3, 4]: 2.1 (1) % (n)
Hyperosmolar state [3, 4]: 2.1 (1) % (n)
Hypertension [3, 4]: 2.1 (1) % (n)
Influenza [3, 4]: 2.1 (1) % (n)
Intestinal spasm [3, 4]: 2.1 (1) % (n)
Joint injury [3, 4]: 2.1 (1) % (n)
Joint sprain [3, 4]: 2.1 (1) % (n)
Joint swelling [3, 4]: 2.1 (1) % (n)
Knee deformity [3, 4]: 2.1 (1) % (n)
Laryngitis [3, 4]: 4.3 (2) % (n)
Limb crushing injury [3, 4]: 2.1 (1) % (n)
Lower respiratory tract infection [3, 4]: 4.3 (2) % (n)
Migraine [3, 4]: 2.1 (1) % (n)
Mood swings [3, 4]: 2.1 (1) % (n)
Muscle spasms [3, 4]: 0.0 (0) % (n)
Musculoskeletal pain [3, 4]: 4.3 (2) % (n)
Nasopharyngitis [3, 4]: 2.1 (1) % (n)
Nausea [3, 4]: 4.3 (2) % (n)
Neck injury [3, 4]: 2.1 (1) % (n)
Neck pain [3, 4]: 2.1 (1) % (n)
Nerve compression [3, 4]: 2.1 (1) % (n)
Non-cardiac chest pain [3, 4]: 2.1 (1) % (n)
Oedema peripheral [3, 4]: 6.4 (3) % (n)
Oesophageal stenosis [3, 4]: 2.1 (1) % (n)
Otitis media [3, 4]: 0.0 (0) % (n)
Pharyngolaryngeal pain [3, 4]: 2.1 (1) % (n)
Plantar fasciitis [3, 4]: 2.1 (1) % (n)
Pneumonia [3, 4]: 2.1 (1) % (n)
Rib fracture [3, 4]: 4.3 (2) % (n)
Road traffic accident [3, 4]: 2.1 (1) % (n)
Sinusitis [3, 4]: 2.1 (1) % (n)
Skin laceration [3, 4]: 2.1 (1) % (n)
Stomach discomfort [3, 4]: 0.0 (0) % (n)
Swelling face [3, 4]: 0.0 (0) % (n)
Tendon injury [3, 4]: 0.0 (0) % (n)
Tendonitis [3, 4]: 2.1 (1) % (n)
Throat irritation [3, 4]: 2.1 (1) % (n)
Tinnitus [3, 4]: 2.1 (1) % (n)
Tooth abscess [3, 4]: 0.0 (0) % (n)
Tooth infection [3, 4]: 2.1 (1) % (n)
Toothache [3, 4]: 2.1 (1) % (n)
Traumatic brain injury [3, 4]: 2.1 (1) % (n)
Upper respiratory tract infection [3, 4]: 6.4 (3) % (n)
Urinary tract infection [3, 4]: 0.0 (0) % (n)
Urticaria [3, 4]: 2.1 (1) % (n)
Viral upper respiratory tract infection [3, 4]: 2.1 (1) % (n)
Vomiting [3, 4]: 4.3 (2) % (n)
Wheezing [3, 4]: 0.0 (0) % (n)
Ear and labyrinth disorders [3, 5]: 2.1 (1) % (n)
Eye disorders [3, 5]: 4.3 (2) % (n)
Gastrointestinal disorders [3, 5]: 23.4 (11) % (n)
General disorders and administration site conditions [3, 5]: 6.4 (3) % (n)
Hepatobiliary disorders [3, 5]: 2.1 (1) % (n)
Immune system disorders [3, 5]: 0.0 (0) % (n)
Infections and infestations [3, 5]: 36.2 (17) % (n)
Injury, poisoning and procedural complications [3, 5]: 17.0 (8) % (n)
Investigations [3, 5]: 0.0 (0) % (n)
Metabolism and nutrition disorders [3, 5]: 8.5 (4) % (n)
Neoplasms benign, malignant and unspecified (incl. cysts and polyps) [3, 5]: 0.0 (0) % (n)
Nervous system disorders [3, 5]: 6.4 (3) % (n)
Psychiatric disorders [3, 5]: 4.3 (2) % (n)
Renal and urinary disorders [3, 5]: 0.0 (0) % (n)
Respiratory, thoracic and mediastinal disorders [3, 5]: 4.3 (2) % (n)
Vascular disorders [3, 5]: 2.1 (1) % (n)
Total Subjects With at Least One TEAE ([3]; follow-on study, safety follow-on population, HZT-501 N = 132, Ibuprofen N = 47): 68.1 (32) % (n)
